Results reported in patent publication US10808001B2, “Biflavone-cobalt complex, preparation method and application thereof” (NANJING FORESTRY UNIVERSITY, priority 2017, dated 2020).

Legend:
[1] = Pyrogallol auto-oxidation method, O2^−. free radical scavenging; details: Tris-HCl pH 8.20, 25° C., 322 nm, read-out: IC50 to scavenge O2^−. free radical
Procedure: The free radical scavenging capacity and the total antioxidant capacity of the Ame and the Ame-Co complex were studied by pyrogallol auto-oxidation method, ABTS method and FRAP method with the following steps:
(1) Pyrogallol Auto-Oxidation Method
Determination of auto-oxidation rate V0 of pyrogallol: 2 mL Tris-HCl buffer (pH=8.20) was added to a 10 mL sample tube at 25° C., 100 μL DMSO was added as a control, after adding 0.8 mL distilled water, 0.2 mL pyrogallol solution having a concentration of 2 mmol·L^−1 was added, the mixture was poured into a cuvette after mixing uniformly, the absorbance at 322 nm was measured with pure water as a blank, the A value was recorded every 10 s for a total of 4 min, linear regression was performed with t as the abscissa, and A as the ordinate, straight line slope thereof is V0, and the measurement was performed for three times to obtain an average value. […]

[2] = FRAP method, total antioxidant capacity; details: Fe^3+-TPTZ, 37° C., 30 min, 593 nm
Procedure: Drawing of the standard curve of FeSO4.7H2O: different volumes of FeSO4.7H2O solution were added to NaAc—HAc buffer (pH=3.6) to prepare Fe^2+ solution with different concentrations. 0.5 mL TPTZ solution, 0.1 mL DMSO, and 1.9 mL NaAc—HAc buffer containing Fe^2+ were successively added into a 10 mL sample tube, after reacting for 5 min at 37° C., the UV-vis spectrum was measured, and the absorption intensity at 593 nm was recorded, and the standard curve was drawn with absorbance (A) as the vertical coordinate and Fe^2+ concentration as the horizontal coordinate.
Determination of total antioxidant capacity of the sample: 0.5 mL TPTZ solution, 0.5 mL ferric chloride solution, 0.1 mL DMSO solution containing samples of different concentrations, and 1.5 mL NaAc—HAc buffer were successively added into a 10 mL sample tube, after reacting for 30 min at 37° C., the UV-vis spectrum was measured, and the absorption intensity A1 at 593 nm was recorded, the absorbance A1 of the sample was converted to the corresponding Fe^2+ ion concentration according to the standard curve of ferrous sulfate, and the curve was drawn with the sample concentration (csample) as the horizontal coordinate and the corresponding Fe^2+ concentration (cFe2+) as the vertical coordinate. […]

herring sperm DNA (fDNA) = experiment: Interaction with fDNA by UV-vis spectroscopy, fluorescence spectroscopy (fDNA-EB system) and viscosity method; format: binding; details: UV-vis, fluorescence (fDNA-EB) and viscosity methods
Text: UV-vis spectroscopy, fluorescence spectroscopy and viscosity method are used to study the interaction between the Ame/Ame-Co complex and herring sperm DNA (fDNA) to further reveal the mechanism of antitumor activity, the obtained spectra are shown in FIGS. 7-11.

hepatoma cells (HepG2) = experiment: MTT method, inhibition of hepatoma cells (HepG2); format: cell-based; details: Homo sapiens, HepG2, absorbance at 595 nm, modified Karber formula, read-out: IC50, inhibition of growth of hepatoma cells (HepG2)
Procedure: (§1) The antitumor activity of Ame and Ame-Co complex were studied by MTT method with the following process:
(§2) (1) The HepG2 and HeLa cell suspensions were inoculated into 96-well culture plates, 100 μL was added for each well, (1×10^5/mL), and then cultured in a 5% CO2 incubator at 37° C. for 24 h;
(§3) (2) After culturing for 24 h, the supernatant was discarded, 100 μL of pre-diluted sample was added, 10 replicate wells were set for each concentration, and then incubated in the 5% CO2 incubator for 24 h; meanwhile, control wells (DMSO, cell suspension, MTT), and blank wells (medium, DMSO, MTT) were set;
(§4) (3) After culturing for […], the supernatant was discarded, 100 μL of DMEM medium containing MTT (5 mg/mL) were added, and then continuously cultured for 4 h; […]
(§5) Where, IR is the inhibition rate, OD0 is the absorbance of the control group, OD1 is the absorbance of the sample group, Xm is lg (the maximum dose), I is lg (the maximum dose/adjacent dose), P is the sum of positive reaction rates, Pm is the maximum positive reaction rate, and Pn is the minimum positive reaction rate.

[3] = system: cervical cancer cells (HeLa); experiment: MTT method, inhibition of cervical cancer cells (HeLa); format: cell-based; details: Homo sapiens, absorbance at 595 nm, modified Karber formula, read-out: IC50, inhibition of growth of cervical cancer cells (HeLa)
Procedure: as §1, §2, §3, §4, §5

IC50 (hepatoma cells (HepG2)) [µM] | IC50 [3] [µM] | Compound | IC50 [1] [µM] | total antioxidant capacity compared with Ame at the same concentration [2] | manner of interaction with fDNA (herring sperm DNA (fDNA)) | strength of interaction with fDNA compared with Ame (herring sperm DNA (fDNA))
 |  | CS(C)=[O+][Co-4]1([O+]=S(C)C)[O+]=C2C=C(c3ccc(O)cc3)Oc3c2c(cc(O)c3-c2cc(-c3cc(=O)c4c(O)cc(O)cc4o3)ccc2O)[OH+]1 [Ame-Co complex, amentoflavone-cobalt (Ame-Co) complex] | 4.74 | significantly stronger than that of Ame | in the intercalation manner | stronger than that between the Ame and the fDNA
13.6 | 8.04 | O=c1cc(-c2ccc(O)c(-c3c(O)cc(O)c4c(=O)cc(-c5ccc(O)cc5)oc34)c2)oc2cc(O)cc(O)c12 [Ame, amentoflavone] | 23.3 |  | in the intercalation manner | 
